Patent US20230002393A1, “CDK KINASE INHIBITOR” (BEIJING BENICALL BIOTECH CO., LTD., priority 2019, published 2023)

Tests used:
MCF-7 cells = experiment: Cell viability assay, MCF-7 cells (CellTiter-Glo, 168 h); type: cell-based; conditions: Homo sapiens, MCF7
Procedure: An in vitro cell viability assay was conducted using some Example compounds following the steps below:
1. After recovery, MCF-7 cells (obtained from the Shanghai Cell Bank of the Chinese Academy of Sciences) were cultured at 37° C., 5% CO2, and 95% humidity.
2. 8 compound solutions at different concentrations were prepared for each Example compound. 50 μL of the compound solution at each concentration was added to a 96-well black plate.
3. The cell concentration was adjusted to about 30,000 cells/mL. 100 μL of the cell suspension was added to the 96-well plate, and mixed well to a final cell density of about 3,000 cells/well.
4. The 96-well plate was incubated at 37° C., 5% CO2, and 95% humidity for 168 h, i.e., 7 days.
5. The cell survival rate was measured by the method of CellTiter-Glo® Luminescent Cell Viability Assay (Promega, Cat #G7572). The fluorescence data were read on a microplate reader (EnVision™, a multi-function microplate detector, PerkinElmer).
6. The obtained fluorescence data were analyzed using the GraphPad Prism software. The cell survival rate was calculated for each Example compound at each concentration, and the IC50 interval of each Example compound was determined.

CDK6/CyclinD1 = biological target: T1, CDK6/CyclinD1 (Homo sapiens, UniProt Q00534); experiment: In vitro cell-free CDK6/CyclinD1 kinase activity assay (TR-FRET); type: biochemical; conditions: ATP at Km
T1 construct: purchased Carna 04-114
Procedure: It should be noted that the assay can also be conducted by a similar method. The assay steps in this Test Example are as follows:
The CDK6/CyclinD1 kinase activity was determined using a time-resolved fluorescence resonance energy transfer (TR-FRET) method. Measurements were performed in a reaction volume of 20 μL using 384-well assay plates. […] The reaction was stopped by adding a mixture of a peptide antibody (trade name: Cisbio, product No. 64CUSKAY) and Sa-XL665 (trade name: Cisbio, product No. 610SAXLB) diluted in HTRF KinEASE detection buffer (trade name: Cisbio, product No. 62SDBRDF, containing EDTA). After the mixture was incubated for 1 hour at room temperature, the plate was read. The TR-FRET signal was measured on a multimode plate reader (EnVision™, a multi-function microplate detector, PerkinElmer) at an excitation wavelength (λEx) of 330 nm and detection wavelengths (λEm) of 615 and 665 nm. The activity was determined by the ratio of fluorescence at 665 nm to that at 615 nm. For each compound, the enzyme activities of different concentrations of the compound were measured to determine IC50. The negative control contained no inhibitor. Two no-enzyme controls were used to determine baseline fluorescence levels. IC50 was obtained by fitting using the GraphPad 6.02 software.
8-10 concentrations were prepared for each compound, and formulated in DMSO. The stock concentration was 200× the working concentration. For example, if the working concentration was 100 nM, the corresponding concentration of the formulated stock solution was 20 μM.
In the analysis of in vitro inhibitory activity on CDK kinase, the IC50 value of each of the Example compounds and Reference Example compounds was determined.

T1 sequence (Q00534 whole entry): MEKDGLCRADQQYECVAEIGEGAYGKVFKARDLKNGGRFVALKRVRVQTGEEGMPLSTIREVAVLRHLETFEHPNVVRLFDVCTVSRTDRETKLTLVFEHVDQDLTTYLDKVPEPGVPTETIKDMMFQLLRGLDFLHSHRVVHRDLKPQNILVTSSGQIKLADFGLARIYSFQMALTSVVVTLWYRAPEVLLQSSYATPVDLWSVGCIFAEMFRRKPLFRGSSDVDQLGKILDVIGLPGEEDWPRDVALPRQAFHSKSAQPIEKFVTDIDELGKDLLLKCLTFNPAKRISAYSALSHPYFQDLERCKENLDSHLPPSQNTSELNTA
T1 sequence (P24385 whole entry partner): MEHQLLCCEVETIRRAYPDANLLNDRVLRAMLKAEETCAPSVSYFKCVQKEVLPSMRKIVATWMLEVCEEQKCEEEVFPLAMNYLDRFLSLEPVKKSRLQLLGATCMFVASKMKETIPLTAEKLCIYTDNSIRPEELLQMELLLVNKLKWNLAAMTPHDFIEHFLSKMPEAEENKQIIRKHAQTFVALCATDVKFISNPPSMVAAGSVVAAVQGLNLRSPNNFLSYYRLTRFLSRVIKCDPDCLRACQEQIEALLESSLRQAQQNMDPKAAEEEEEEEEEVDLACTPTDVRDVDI

Structure (SMILES)	IC50 (MCF-7 cells)	IC50 (CDK6/CyclinD1)
N#Cc1cc2cnc(Nc3ccc(N4CCNCC4)cn3)nn2c1N1CCCC1 [Example 26]	< 500 nM	< 100 nM
N#Cc1cc2cnc(Nc3ccc(N4CCNCC4)cc3)nn2c1N1CCCC1 [Example 6]	< 500 nM	< 100 nM
Cc1noc(C)c1-c1cc2cnc(Nc3ccc(N4CCNCC4)cn3)nn2c1-c1ccc(F)cc1 [Example 20]	500 to 2500 nM	100 to 1000 nM
C1=C(c2c(-c3cn[nH]c3)cc3cnc(Nc4ccc(N5CCNCC5)cn4)nn23)CCC1 [Example 74]	< 500 nM	< 100 nM
COCCOc1ccc(-c2c(C(=O)N(C)C)cc3cnc(Nc4ccc(N5CCNCC5)cn4)nn23)cc1 [Example 57]	500 to 2500 nM	< 100 nM
O=C1CCCN1c1cc2cnc(Nc3ccc(N4CCNCC4)cn3)nn2c1C1=CCCC1 [Example 52]	2500 to 10000 nM	100 to 1000 nM
CN(C)C(=O)c1cc2cnc(Nc3ccc(N4CC5(CCNC5)C4)cn3)nn2c1-c1ccncc1 [Example 69]	2500 to 10000 nM	< 100 nM
Cn1cc(-c2cc3cnc(Nc4ccc(N5CCNCC5)cn4)nn3c2-c2ccncc2)cn1 [Example 54]	500 to 2500 nM	< 100 nM
CN(C)C(=O)c1cc2cnc(Nc3ccc(N4CC5(CCNC5)C4)cn3)nn2c1-c1ccc(Cl)cc1 [Example 46]	< 500 nM	< 100 nM
Cc1nn(C)cc1-c1cc2cnc(Nc3ccc(N4CCNCC4)cn3)nn2c1C1=CCCC1 [Example 23]	< 500 nM	100 to 1000 nM
CN(C)C(=O)c1cc2cnc(Nc3ccc(N4CCNC5(CC5)C4)cn3)nn2c1-c1ccc(Cl)cc1 [Example 45]	500 to 2500 nM	< 100 nM
CN(C)C(=O)c1cc2cnc(Nc3ccc(N4CCC5(CC4)CC5)cn3)nn2c1C1=CCCC1 [Example 35]	500 to 2500 nM	100 to 1000 nM
COc1ccc(-c2c(-c3cnn(C)c3)cc3cnc(Nc4ccc(N5CCNCC5)cn4)nn23)cc1 [Example 19]	500 to 2500 nM	< 100 nM
CN(C)C(=O)c1cc2cnc(Nc3ccc(N4CCNCC4)cn3)nn2c1-c1ccc(O)cc1 [Example 60]	2500 to 10000 nM	< 100 nM
N#Cc1cc2cnc(Nc3ccc(N4CCNCC4)cn3)nn2c1-c1ccc(Cl)cc1 [Example 24]	< 500 nM	< 100 nM
CN(C)C(=O)c1cc2cnc(Nc3ccc(N4CCC5(CC4)CNC5)cn3)nn2c1C1=CCCC1 [Example 41]	< 500 nM	< 100 nM
CN(C)C(=O)c1cc2cnc(Nc3ccc(N4CCC5(CC4)OCCO5)cn3)nn2c1C1=CCCC1 [Example 37]	500 to 2500 nM	< 100 nM
COc1cc(F)ccc1-c1c(C(=O)N(C)C)cc2cnc(Nc3ccc(N4CCNCC4)cn3)nn12 [Example 59]	500 to 2500 nM	< 100 nM
Cc1noc(C)c1-c1c(-c2cnn(C)c2)cc2cnc(Nc3ccc(N4CCNCC4)cn3)nn12 [Example 68]	2500 to 10000 nM	100 to 1000 nM
N#Cc1cc2cnc(Nc3ccc(N4CCNCC4)cn3)nn2c1C1=CCC(=O)CC1 [Example 30]	2500 to 10000 nM	100 to 1000 nM
CN(C)C(=O)c1cc2cnc(Nc3ccc(N4CCNCC4)cn3)nn2c1N1CCCC1 [Example 29]	< 500 nM	< 100 nM
CN(C)C(=O)c1cc2cnc(Nc3ccc(N4CCNCC4)cn3)nn2c1C1=CCCC1 [Example 28]	< 500 nM	< 100 nM
CN1CCN(c2ccc(Nc3ncc4ccc(C5=CCCC5)n4n3)cc2)CC1 [Example 5]	< 500 nM	100 to 1000 nM
CN(C)C(=O)c1cc2cnc(Nc3ccc(N4CC5(CNC5)C4)cn3)nn2c1C1=CCCC1 [Example 40]	< 500 nM	< 100 nM

The next lines start with the values.

IC50 (MCF-7 cells)	IC50 (CDK6/CyclinD1)	Structure (SMILES)
< 500 nM	< 100 nM	[2H]C([2H])([2H])N(C(=O)c1cc2cnc(Nc3ccc(N4CCN(C)CC4)cn3)nn2c1C1=CCCC1)C([2H])([2H])[2H] [Example 113]
< 500 nM	< 100 nM	[2H]C([2H])([2H])N(C(=O)c1cc2cnc(Nc3ccc(N4CCN(CC)CC4)cn3)nn2c1C1=CCCC1)C([2H])([2H])[2H] [Example 118]
< 500 nM	< 100 nM	CN(C)C(=O)c1cc2cnc(Nc3ccc(N4CCNCC4)cn3)nn2c1-c1ccccc1 [Example 108]
< 500 nM	< 100 nM	COc1cc(F)ccc1-c1c(-c2cn[nH]c2)cc2cnc(Nc3ccc(N4CCNCC4)cn3)nn12 [Example 94]
< 500 nM	< 100 nM	C1=C(c2c(-c3cncnc3)cc3cnc(Nc4ccc(N5CCNCC5)cn4)nn23)CCC1 [Example 84]
< 500 nM	< 100 nM	Cc1n[nH]cc1-c1cc2cnc(Nc3ccc(N4CCNCC4)cn3)nn2c1C1=CCCC1 [Example 85]
< 500 nM	100 to 1000 nM	CC(C)n1cc(-c2cc3cnc(Nc4ccc(N5CCNCC5)cn4)nn3c2C2=CCCC2)cn1 [Example 87]
2500 to 10000 nM	100 to 1000 nM	COc1cc(F)ccc1-c1c(-c2c[nH]nc2C)cc2cnc(Nc3ccc(N4CCNCC4)cn3)nn12 [Example 91]
< 500 nM	100 to 1000 nM	Cn1cc(-c2cc3cnc(Nc4ccc(N5CCNCC5)cn4)nn3c2Br)cn1 [Example 82]
< 500 nM	< 100 nM	CN1CCN(c2ccc(Nc3ncc4cc(C(=O)N(C)C)c(C5=CCCC5)n4n3)nc2)CC1 [Example 99]
< 500 nM	< 100 nM	Cn1cc(-c2cc3cnc(Nc4ccc(N5CCC6(CCNCC6)CC5)cn4)nn3c2C2=CCCC2)cn1 [Example 93]
500 to 2500 nM	100 to 1000 nM	Cc1ccc(-c2cc3cnc(Nc4ccc(N5CCNCC5)cn4)nn3c2C2=CCCC2)s1 [Example 83]
< 500 nM	< 100 nM	COc1ccc(-c2c(C(=O)N(C)C)cc3cnc(Nc4ccc(N5CCN(C)CC5)cn4)nn23)cc1 [Example 100]
> 10000 nM	1000 to 3000 nM	Cc1noc(C)c1-c1c(C(=O)N(C)C)cc2cnc(Nc3ccc(N4CC5(CCNC5)C4)cn3)nn12 [Reference Example 134, reference compound]
< 500 nM	< 100 nM	[2H]C([2H])([2H])N(C(=O)c1cc2cnc(Nc3ccc(N4CCNCC4)cn3)nn2c1-c1ccccc1)C([2H])([2H])[2H] [Example 116]
> 10000 nM	> 3000 nM	Cc1noc(C)c1-c1c(-c2cnn(C)c2)c(-c2c(C)noc2C)n2nc(Nc3ccc(N4CCNCC4)cn3)ncc12 [Reference Example 131, reference compound]
< 500 nM	< 100 nM	[2H]C([2H])([2H])N1CCN(c2ccc(Nc3ncc4cc(C(=O)N(C)C)c(C5=CCCC5)n4n3)nc2)CC1 [Example 102]
< 500 nM	< 100 nM	[2H]C([2H])([2H])N(C(=O)c1cc2cnc(Nc3ccc(N4CCN(C)CC4)cn3)nn2c1-c1ccccc1)C([2H])([2H])[2H] [Example 120]
< 500 nM	< 100 nM	[2H]C([2H])([2H])N1CCN(c2ccc(Nc3ncc4cc(-c5cnn(C)c5)c(C5=CCCC5)n4n3)nc2)CC1 [Example 126]
> 10000 nM	> 3000 nM	COC(=O)c1cc2cnc(Nc3ccc(N4CC5(CNC5)C4)cn3)nn2c1-c1cccc2cccnc12 [Reference Example 133, reference compound]
< 500 nM	< 100 nM	[2H]C([2H])([2H])C([2H])([2H])N1CCN(c2ccc(Nc3ncc4cc(C(=O)N(C)C)c(C5=CCCC5)n4n3)nc2)CC1 [Example 104]
< 500 nM	< 100 nM	CN(C)C(=O)c1cc2cnc(Nc3ccc(N4CCN(C5CC5)CC4)cn3)nn2c1C1=CCCC1 [Example 109]
< 500 nM	< 100 nM	[2H]C([2H])([2H])N1CCN(c2ccc(Nc3ncc4cc(C(=O)N(C([2H])([2H])[2H])C([2H])([2H])[2H])c(-c5ccc(Cl)cc5)n4n3)nc2)CC1 [Example 127]
< 500 nM	< 100 nM	C1=C(c2c(-c3cccnc3)cc3cnc(Nc4ccc(N5CCNCC5)cn4)nn23)CCC1 [Example 88]
< 500 nM	< 100 nM	[2H]C([2H])([2H])N1CCN(c2ccc(Nc3ncc4cc(C(=O)N(C)C)c(-c5ccc(OC)cc5)n4n3)nc2)CC1 [Example 101]
< 500 nM	< 100 nM	CCn1cc(-c2cc3cnc(Nc4ccc(N5CCNCC5)cn4)nn3c2C2=CCCC2)cn1 [Example 86]
